Measured values from PubChem BioAssay AID330 (DTP/NCI, 2004).
Where “and” joins values, the source holds several entries; their conditions need not be identical. Identical values can stand only once. Inconclusive results and toxic doses are left out. Rule for the calls: active = survival T/C of 150% or more; inactive = T/C below 125% in these data.

Tested on: P388 leukemia ip, CD2F1 mice, survival T/C
Experiment: NCI In Vivo Anticancer Drug Screen. Data for tumor model P388 Leukemia (intraperitoneal) in CD2F1 (CDF1) mice
Conditions: endpoint: median survival time, higher = longer survival
Method in brief: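 Mice carrying the transplanted tumor received test compound or vehicle. Survival was recorded in each group, and the value is the treated-group measurement divided by that of the vehicle-treated control group.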

[1] = dose: 50.0 mg/kg/injection, schedule: Q01DX009 (ip), vehicle: saline with Tween-80
[2] = dose: 100.0 mg/kg/injection, schedule: Q01DX009 (ip), vehicle: saline with Tween-80
[3] = dose: 60.0 mg/kg/injection, schedule: Q01DX005 (ip), vehicle: saline with Tween-80
[4] = dose: 120.0 mg/kg/injection, schedule: Q01DX005 (ip), vehicle: saline with Tween-80
[5] = dose: 100.0 mg/kg/injection, schedule: Q04DX003 (ip), vehicle: saline with Tween-80
[6] = dose: 200.0 mg/kg/injection, schedule: Q04DX003 (ip), vehicle: saline with Tween-80

Measured: T/C

Cc1nc(C(Cl)(Cl)Cl)[nH]c(=O)c1SCCO
inactive: dose: 50.0 mg/kg/injection, schedule: Q01DX005 (ip), vehicle: distilled water + alcohol 101 % of control and 108 % of control | dose: 100.0 mg/kg/injection, schedule: Q01DX005 (ip), vehicle: distilled water + alcohol 105 % of control and 120 % of control | dose: 200.0 mg/kg/injection, schedule: Q01DX005 (ip), vehicle: distilled water + alcohol 114 % of control

CN1CC=Nc2c1nc(N)[nH]c2=O
inactive: [1] 98 % of control | [2] 95 % of control

COC1=C(O)C(=O)N(C)C(=O)C1
inactive: dose: 0.93 mg/kg/injection, schedule: Q01DX005 (ip), vehicle: saline 104 % of control | dose: 1.87 mg/kg/injection, schedule: Q01DX005 (ip), vehicle: saline 101 % of control | dose: 3.75 mg/kg/injection, schedule: Q01DX005 (ip), vehicle: Klucel (hydroxypropylcellulose) (HPC) 110 % of control | dose: 3.75 mg/kg/injection, schedule: Q01DX005 (ip), vehicle: saline 104 % of control

CCOC(=O)N1CCN(c2cc(C)nc3cc(OC)ccc23)CC1
inactive: [3] 88 % of control | [4] 94 % of control

O=S1(=O)CS/C(=N/C(=S)N(Cc2ccccc2)Cc2ccccc2)N1c1ccccc1
inactive: dose: 50.0 mg/kg/injection, schedule: Q04DX003 (ip), vehicle: saline with Tween-80 89 % of control | [5] 104 % of control | [6] 111 % of control

COc1cc2c(cc1OC)OC(C)(C)C=C2
inactive: dose: 6.87 mg/kg/injection, schedule: Q01DX009 (ip), vehicle: saline with Tween-80 106 % of control | dose: 13.75 mg/kg/injection, schedule: Q01DX009 (ip), vehicle: saline with Tween-80 98 % of control | dose: 27.5 mg/kg/injection, schedule: Q01DX009 (ip), vehicle: saline with Tween-80 108 % of control | dose: 55.0 mg/kg/injection, schedule: Q01DX009 (ip), vehicle: saline with Tween-80 102 % of control

CC(O)(c1ccccc1)C1C(c2ccccc2)N1Cc1ccccc1 (stereo unspecified)
inactive: dose: 50.0 mg/kg/injection, schedule: Q04DX003 (ip), vehicle: saline sonified 100 % of control | dose: 100.0 mg/kg/injection, schedule: Q04DX003 (ip), vehicle: saline sonified 91 % of control

O=c1n(-c2ccccc2)c(=O)n2n1C1CC3c4ccccc4C1C32 (stereo unspecified)
inactive: dose: 25.0 mg/kg/injection, schedule: Q01DX005 (ip), vehicle: Klucel (hydroxypropylcellulose) (HPC) 101 % of control | dose: 50.0 mg/kg/injection, schedule: Q01DX005 (ip), vehicle: Klucel (hydroxypropylcellulose) (HPC) 97 % of control | dose: 100.0 mg/kg/injection, schedule: Q01DX005 (ip), vehicle: Klucel (hydroxypropylcellulose) (HPC) 94 % of control

CCOP(=O)(OCC)C1OCCCO1
inactive: dose: 50.0 mg/kg/injection, schedule: Q01DX009 (ip), vehicle: saline 102 % of control | dose: 100.0 mg/kg/injection, schedule: Q01DX009 (ip), vehicle: saline 98 % of control | dose: 200.0 mg/kg/injection, schedule: Q01DX009 (ip), vehicle: saline 106 % of control

CC(=O)O.CC(=O)O.CC(=O)O.CC(=O)O.[Cu].[Cu]
inactive: dose: 6.25 mg/kg/injection, schedule: Q04DX002 (ip), vehicle: Klucel (hydroxypropylcellulose) (HPC) 91 % of control | dose: 12.5 mg/kg/injection, schedule: Q04DX002 (ip), vehicle: Klucel (hydroxypropylcellulose) (HPC) 100 % of control

CCOC1=C(C#N)C(=O)NC2OC(CO)C(O)C2O1 (stereo unspecified)
inactive: dose: 60.0 mg/kg/injection, schedule: Q01DX005 (ip), vehicle: Klucel (hydroxypropylcellulose) (HPC) 104 % of control | dose: 120.0 mg/kg/injection, schedule: Q01DX005 (ip), vehicle: Klucel (hydroxypropylcellulose) (HPC) 104 % of control | dose: 240.0 mg/kg/injection, schedule: Q01DX005 (ip), vehicle: Klucel (hydroxypropylcellulose) (HPC) 106 % of control

CCN(CC)C(=O)S(=O)(=O)c1ccccc1
inactive: dose: 12.5 mg/kg/injection, schedule: Q01DX009 (ip), vehicle: Klucel (hydroxypropylcellulose) (HPC) 106 % of control | dose: 25.0 mg/kg/injection, schedule: Q01DX009 (ip), vehicle: Klucel (hydroxypropylcellulose) (HPC) 101 % of control and 98 % of control | dose: 50.0 mg/kg/injection, schedule: Q01DX009 (ip), vehicle: Klucel (hydroxypropylcellulose) (HPC) 120 % of control | dose: 100.0 mg/kg/injection, schedule: Q01DX009 (ip), vehicle: Klucel (hydroxypropylcellulose) (HPC) 111 % of control | dose: 200.0 mg/kg/injection, schedule: Q01DX009 (ip), vehicle: Klucel (hydroxypropylcellulose) (HPC) 110 % of control

COC(=O)C1=CC(=O)N2C(=Nc3cccc4cccc2c34)S1
inactive: dose: 6.25 mg/kg/injection, schedule: Q01DX005 (ip), vehicle: saline with Tween-80 91 % of control | dose: 12.5 mg/kg/injection, schedule: Q01DX005 (ip), vehicle: saline with Tween-80 94 % of control | dose: 25.0 mg/kg/injection, schedule: Q01DX005 (ip), vehicle: saline with Tween-80 103 % of control | dose: 100.0 mg/kg/injection, schedule: Q01DX005 (ip), vehicle: saline with Tween-80 99 % of control | dose: 200.0 mg/kg/injection, schedule: Q01DX005 (ip), vehicle: saline with Tween-80 103 % of control

CCCCCC(=O)C(C)(c1nc2nnc(NC(=O)Nc3ccc(Cl)cc3)n2[nH]c1=O)c1nc2nnc(NC(=O)Nc3ccc(Cl)cc3)n2[nH]c1=O
inactive: [3] 103 % of control | [4] 98 % of control | dose: 240.0 mg/kg/injection, schedule: Q01DX005 (ip), vehicle: saline with Tween-80 97 % of control

Clc1cc(Cl)nc(N2CC2)n1
inactive: dose: 5.0 mg/kg/injection, schedule: Q01DX009 (ip), vehicle: saline with Tween-80 116 % of control | dose: 5.0 mg/kg/injection, schedule: Q04DX003 (ip), vehicle: saline with Tween-80 100 % of control | dose: 10.0 mg/kg/injection, schedule: Q01DX009 (ip), vehicle: saline with Tween-80 100 % of control | dose: 10.0 mg/kg/injection, schedule: Q04DX003 (ip), vehicle: saline with Tween-80 104 % of control | dose: 20.0 mg/kg/injection, schedule: Q04DX003 (ip), vehicle: saline with Tween-80 118 % of control

C[C@H]1C[C@@H]2[C@H]([C@@H](O)C[C@@]3(C)[C@H]2CC[C@]3(O)C(=O)CO)[C@@]2(C)C=CC(=O)C=C12
inactive: [1] 100 % of control | dose: 66.0 mg/kg/injection, schedule: Q01DX009 (ip), vehicle: saline with Tween-80 95 % of control | [2] 100 % of control | [5] 106 % of control and 112 % of control | dose: 132.0 mg/kg/injection, schedule: Q04DX003 (ip), vehicle: saline with Tween-80 109 % of control | dose: 150.0 mg/kg/injection, schedule: Q01DX009 (ip), vehicle: saline with Tween-80 90 % of control | dose: 200.0 mg/kg/injection, schedule: Q01DX009 (ip), vehicle: saline with Tween-80 97 % of control | [6] 108 % of control and 109 % of control | dose: 300.0 mg/kg/injection, schedule: Q04DX003 (ip), vehicle: saline with Tween-80 95 % of control | dose: 400.0 mg/kg/injection, schedule: Q04DX003 (ip), vehicle: saline with Tween-80 104 % of control and 108 % of control

C=C1C(NC)CCC23CC24CCC2(C)C(C(C)=O)C(O)CC2(C)C4CCC13 (stereo unspecified)
inactive: [1] 92 % of control | [2] 96 % of control
